Consider 4 compounds from US20240383865A1, “HIGH-ENERGY-VIOLET-ABSORBING VINYLIC MONOMERS” (Alcon Inc., priority 2023, published 2024).

The structures appear in SMILES notation. Converted amounts (≈) assume the structure as drawn.

Assay type in all cases: physicochemical
A short description of data set [1]: Absorption edge of germanium photoinitiators.
A short description of data set [2]: UV/visible absorption spectra of dilute solutions (40 ppm, 1 cm cuvette). Conditions: for UV/visible absorption profiles of UV28 and UV35 compared: 40 ppm, FIG. 3.
The nature of data set [3]: Dissolution of benzotriazole monomer in lens formulations. The note with it: for Dissolution in Lightstream formulation: formulations 6-1 (UV28) and 6-2 (UV35), mixing at room temperature then 40° C.; for Dissolution in thermally cured formulations: formulations 6-3 (UV28) and 6-4 (UV35), mixed at room temperature 1-2 hours. The protocol: All formulations in the amount of 10 g are mixed at room temperature for 1-2 hours. Following initial mixing, Lightstream formulations (6-1 and 6-2) are mixed for an additional 1-2 hours at 40° C. […] Both benzotriazoles-UV28 and UV35 dissolve in thermally cured formulations (6-3 and 6-4). Room temperature and refrigerated (3° C.) conditions are tested.

Data set [4] in a line: Solubility of HEVL-absorbing vinylic monomers in 1-propanol. The procedure:
This example illustrates the correlation between the melting point and solubility of HEVL-absorbing vinylic monomers of
As anticipated, solubility in 1-propanol is improved, reaching >4.0 mg/ml (Table 1).

For the compound `CCc1ccccc1[C](=O)[Ge]([C](=O)c1ccccc1CC)([C](=O)c1ccccc1CC)[C](=O)c1ccccc1CC` [TEB-Ge, tetrakis(2-ethylbenzoyl)-germanium], the Absorption edge in data set [1] turned out to be 490 nm.

For `C=C(C)C(=O)OCCCOc1cc(-n2nc3ccc(Cl)cc3n2)c(O)c(C(C)(C)C)c1` [UV28, 2-{2′-Hydroxy-3′-tert-butyl-5′-[3′-methacryloyloxypropoxy]phenyl}-5-chloro-2H-benzotriazole, reference compound], in data set [2] (40 ppm in 1-propanol), the “Absorption Peak” value was found to be 364 nm. The “UV/visible absorption profiles of UV28 and UV35 compared” value in data set [2] is “equivalent”. Also, in data set [3], the “Dissolution in Lightstream formulation” value is on record as “does not dissolve” and the “Dissolution in thermally cured formulations” value was “dissolve”. Moreover, the “Solubility in PrOH” value in data set [4] worked out at 1.5 mg/mL (≈ 3.38 mM).

As to `C[CH2][Ge]([CH2]C)([C](=O)c1ccc(OC)cc1)[C](=O)c1ccc(OC)cc1` [BMBDE-Ge, Bis(4-methoxybenzoyl)diethylgermanium], in data set [1], the Absorption edge was found to be 470 nm.

Usually solubility stands for the concentration that dissolves in the medium under given conditions. In the case of `C=C(C)C(=O)OCCOCCOc1cc(-n2nc3ccc(Cl)cc3n2)c(O)c(C(C)(C)C)c1` [UV35, 2-propenoic acid, 2-methyl-, 2-[2-[3-(5-chloro-2H-benzotriazol-2-yl)-5-(1,1-dimethylethyl)-4-hydroxyphenoxy]ethoxy]ethyl ester], the “UV/visible absorption profiles of UV28 and UV35 compared” value in data set [2] is listed as “equivalent”. Moreover, in data set [3], the “Dissolution in Lightstream formulation” value is listed as “dissolves completely” and the “Dissolution in thermally cured formulations” value is “dissolve”. In addition, the “Solubility in PrOH” value in data set [4] was above 4.0 mg/mL. The solubility in data set [4] (organic solvent or mixture, read-out: Solubility in PrOH) was above 4000 µg/mL.
